Reference: the OPERA property sets (Mansouri et al. 2018)
Converted amounts (≈) assume the structure as drawn.

Conditions: 20 °C

| SMILES | solubility |
| --- | --- |
| c1ccc2[nH]ncc2c1 | 6.99 mM (≈ 826 µg/mL) |
| c1ccc2[nH]cnc2c1 | 17 mM (≈ 2010 µg/mL) |

Same assay, conditions: 25 °C

| SMILES | solubility |
| --- | --- |
| Cc1cccc2c1c(C)cc1cc3ccccc3cc12 | 1.06e-05 mM (≈ 0.00272 µg/mL) |
| Cc1nc2ccccc2[nH]1 | 11 mM (≈ 1450 µg/mL) |
| c1ccc2c(c1)c1cccc3ccc4cccc2c4c31 | 1.89e-05 mM (≈ 0.00477 µg/mL) |
| c1ccc2nccnc2c1 | 5070 mM (≈ 660000 µg/mL) |
| Cc1c2ccccc2c2ccc3cccc4ccc1c2c43 | 3e-06 mM (≈ 0.000798 µg/mL) |
| c1ccc2cc3c(cc2c1)-c1cccc2cccc-3c12 | 3.17e-06 mM (≈ 0.0008 µg/mL) |
| c1ccc2c(c1)-c1ccc3ccc4cccc5cc-2c1c3c45 | 6.88e-07 mM (≈ 0.00019 µg/mL) |
| c1ccc2ccccc2c1 | 0.242 mM (≈ 31 µg/mL) |
| c1ccc2c(c1)ccc1ncccc12 | 0.439 mM (≈ 78.7 µg/mL) |
| c1ccc2cnccc2c1 | 35 mM (≈ 4520 µg/mL) |
| CCCCc1c2ccccc2cc2ccc3ccccc3c12 | 2.99e-05 mM (≈ 0.0085 µg/mL) |
| Cc1c[nH]c2ccccc12 | 3.8 mM (≈ 498 µg/mL) |

Same assay, conditions: 27 °C

| SMILES | solubility |
| --- | --- |
| CCc1c2ccccc2cc2c1ccc1ccccc12 | 0.00016 mM (≈ 0.041 µg/mL) |
